“Also recorded” adds a separate entry of the source. Each block holds one compound with its values, some of them ahead of it.
Legend:
Type in all cases: in vivo, mouse
female C57BL/6 mice [1] = test: Open-field exploration (OFE): locomotor activity and anxiety (thigmotaxis)
Description: Seven-week-old female C57BL/6 mice were purchased from Charles River (Wilmington, Mass., USA) and allowed to habituate to the facility for 7 days, followed by 3 days of handling before the start of the experiment. Mice were randomly assigned into groups, with all groups represented in each cage. […]
Behavioral experiments were adapted from a published protocol (35). Data were analyzed blinded to the experimental conditions. […]
For the OFE task, each mouse was allowed to explore the arena for 10 min. The camera footage was then analyzed using ToxTrac, a published program for the total distance moved and time spent in the peripheral versus the central areas (36). For the DOR task, pairs of 50-mL tubes filled with corn cob bedding were taped cap-down to pre-determined positions in the arena. […] The camera footage was then analyzed for bouts of interactions with the tubes. […] Casual touching of the tubes in passing, or leaning onto the tubes to look around were not counted. The preference index for the displaced object was calculated as 100*(time spent with displaced object)/(total time spent with both displaced and familiar objects). The preference index for the familiar object was similarly calculated. […]

female C57BL/6 mice [2] = test: Displaced object recognition (DOR) task in paclitaxel-induced model of cognitive impairment; details: for preference for the displaced object (DOR task): saline and paclitaxel 4×20 mg/kg, 20 mg/kg
Description: (§1) Seven-week-old female C57BL/6 mice were purchased from Charles River (Wilmington, Mass., USA) and allowed to habituate to the facility for 7 days, followed by 3 days of handling before the start of the experiment. Mice were randomly assigned into groups, with all groups represented in each cage. Depending on the treatment group, lithium chloride (Sigma-Aldrich, 12.8 mg/kg in 0.9% saline), chelerythrine chloride (Cayman Chemical, 2 mg/kg in 0.4% DMSO in saline), or the appropriate vehicle was administered intraperitoneally 1 h before injection of vehicle (20% 50:50 Cremophor EL: ethanol, 80% saline) or paclitaxel (Cayman Chemical, 20 mg/kg in 20% 50:50 Cremophor EL: ethanol, 80% saline) to induce cognitive impairment. Each mouse received a total of 4 pairs of injections over 8 days. During and after injections, mice were weighed daily and checked for general health and any sign of pain or distress.
Behavioral experiments were adapted from a published protocol (35). Data were analyzed blinded to the experimental conditions. Open-field exploration (OFE) and displaced object recognition (DOR) tasks were carried out over two consecutive days (FIG. 4.1). The experimental arena was a 35×70×35 cm opaque, white Plexiglas chamber. The arena was covered with ˜1 cm of standard corn cob bedding. […]
For the OFE task, each mouse was allowed to explore the arena for 10 min. The camera footage was then analyzed using ToxTrac, a published program for the total distance moved and time spent in the peripheral versus the central areas (36). For the DOR task, pairs of 50-mL tubes filled with corn cob bedding were taped cap-down to pre-determined positions in the arena. […] The camera footage was then analyzed for bouts of interactions with the tubes. […] Casual touching of the tubes in passing, or leaning onto the tubes to look around were not counted. The preference index for the displaced object was calculated as 100*(time spent with displaced object)/(total time spent with both displaced and familiar objects). The preference index for the familiar object was similarly calculated.

[3] = Body weight during and after paclitaxel injections
Description: as §1

[4] = system: granule cells in the dentate gyrus of the hippocampus; test: Golgi-Cox staining and Sholl analysis of hippocampal neurons; details: 30 DPI
Description: (§2) Golgi-Cox staining solutions were prepared in advance, according to a published protocol (37). For tissue collection, each mouse was first anesthetized for ˜30 s with […] isoflurane, and then quickly decapitated with scissors. The skull was opened, and the brain was extracted and washed briefly in ice-cold 1× phosphate-buffered saline solution (PBS, AmericanBio). A razor blade was then used to dissect the brain into two hemispheres along the medial longitudinal fissure. One hemisphere was immediately dropped into a 25-mL scintillation vial containing 10 mL of impregnation stock solution. The other hemisphere was rapidly dissected into the cerebellum, hippocampus, frontal cortex, and midbrain, snap-frozen in liquid nitrogen, and then subsequently stored at −80° C. until further use.
Golgi-Cox staining was performed according to a published protocol (37). Briefly, the samples were impregnated with a potassium dichromate and mercuric chloride solution at room temperature for 7 days, followed by immersion in a cryoprotection solution for 4 days, and then sectioned into […] frontal slices with a vibratome. The Golgi Atlas of the Postnatal Mouse Brain was used as the reference to identify the section position of the slices (38). […] Spine density was quantified as the number of protrusions on dendritic branches per μm dendrite length

[5] = system: layers 2/3 cortical pyramidal neurons; test: Golgi-Cox staining and Sholl analysis of cortical neurons
Description: as §2
Golgi-Cox staining was performed according to a published protocol (37). Briefly, the samples were impregnated with a potassium dichromate and mercuric chloride solution at room temperature for 7 days, followed by immersion in a cryoprotection solution for 4 days, and then sectioned into […] frontal slices with a vibratome. The Golgi Atlas of the Postnatal Mouse Brain was used as the reference to identify the section position of the slices (38). Slices corresponding to frontal sections 10 and 11 in the atlas were selected for imaging the hippocampus and the parietal cortex. Slices corresponding to frontal sections 4 and 5 were selected for imaging the prefrontal cortex. The selected slices were mounted on 0.3% gelatin-coated slides, developed and dehydrated through a series of increasing alcohol concentrations, then with xylene, and finally mounted in Eukitt solution (Sigma Aldrich) for imaging. Z-stack images of different regions, including the dentate gyrus and the frontal cortex, were collected using a Zeiss LSM 710 Duo microscope with 20× and 60× objectives. […] Spines were imaged from basal dendritic branches at least […] away, and apical dendritic branches at least […] away from the cell soma. Scholl analysis, total dendritic length, number of branch points, and spine density were performed with ImageJ using the Simple Neurite Tracer plugin (39). Spine density was quantified as the number of protrusions on dendritic branches per μm dendrite length

PKCα = test: Western blot of brain tissue for PKCα
Description: as §2
(§3) Frozen tissues were thawed in RIPA buffer containing protease inhibitor, phenylmethylsulfonyl fluoride (PMSF), and sodium orthovanadate (Santa Cruz), homogenized with a polytron, and then spun down twice at 13000 rpm, 4° C. to remove cell debris. Protein concentration was quantified using Pierce BCA protein assay kit (ThermoFisher Scientific) according to the manufacturer's instruction. Western blots were performed using the NuPAGE system (ThermoFisher Scientific) and PVDF membrane with the Biorad wet transfer system (Bio-Rad Laboratories). Approximately 20 μg total protein was loaded into each lane. Information about the antibodies used is included in Supp.

pMARCKS (S152/156) = test: Western blot of brain tissue for pMARCKS; details: cortex, 24 h after paclitaxel injection
Description: as §2
as §3, with “Information about the antibodies used is included in Supp.” left out

[6] = system: InsP3R1, NCS1, phospholipase C (PLC-β1); test: Western blot of brain tissue for other InsP3R pathway proteins; details: 30 DPI, paclitaxel
Description: as §2
as §3, with “Information about the antibodies used is included in Supp.” left out

[7] = medial prefrontal cortex, comparison among 4 groups
[8] = saline/paclitaxel vs the other three groups

SMILES: COc1ccc2c(c[n+](C)c3c4cc5c(cc4ccc23)OCO5)c1OC [chelerythrine, chelerythrine chloride]
locomotor activity and anxiety (total distance moved, thigmotaxis) (female C57BL/6 mice [1]; chelerythrine groups vs other groups, 4 DPI and 22 DPI): no differences

total dendritic length ([4]; saline and paclitaxel vs other groups): significant reduction
total dendritic length ([5]; frontal cortex, saline and paclitaxel vs other groups, 30 DPI): significant reduction
basal dendritic length [5, 7]: no significant differences
basal spine density [5, 7]: no significant differences
apical dendritic length [5, 8]: significant reduction
apical spine density [5, 8]: significant reduction
SMILES: CC(=O)O[C@H]1C(=O)[C@@]2(C)[C@H]([C@H](OC(=O)c3ccccc3)[C@]3(O)C[C@H](OC(=O)[C@H](O)[C@@H](NC(=O)c4ccccc4)c4ccccc4)C(C)=C1C3(C)C)[C@]1(OC(C)=O)CO[C@@H]1C[C@@H]2O [paclitaxel]
DOR task performance (female C57BL/6 mice [2]; 4×20 mg/kg paclitaxel, after optimization, time not stated): sufficient to impair DOR task performance without additional side effects
preference for the displaced object (DOR task) (female C57BL/6 mice [2]; 5 DPI): no discrimination between the two objects; also recorded: did not discriminate between the objects; also recorded: impaired short-term spatial memory acquisition; also recorded: no preference for either object
preference for the displaced object (DOR task) (female C57BL/6 mice [2]; 23 DPI): did not discriminate between the objects; also recorded: impaired short-term spatial memory acquisition; also recorded: persisted up to 23 DPI
locomotor activity and anxiety (total distance, thigmotaxis) (female C57BL/6 mice [1]; mouse, in vivo, 20 mg/kg): neither impaired locomotor activity nor caused increased anxiety
body weight loss ([3]; after 2 paclitaxel injections, normalized to first day of injection (FIG. S1)): 5-10%
body weight loss ([3]; during injections, normalized to first day of injection (FIG. S3)): approximately 5%
weight loss, comparison among groups ([3]; over the injection duration): No significant differences; also recorded: No significant weight loss
dendritic complexity (Sholl analysis) ([4]; saline and paclitaxel vs saline/vehicle, particularly 20-90 μm from the soma): reduced dendritic arborization; also recorded: substantial reduction in dendritic complexity
dendritic complexity (Sholl analysis) ([5]; frontal cortex, saline and paclitaxel, 30 DPI): significant reduction in dendritic complexity
basal dendrites: complexity (Sholl analysis) [5, 7]: no significant differences; also recorded: largely spared; also recorded: not observed in basal dendrites
apical dendrites: dendritic arborization (Sholl analysis) ([5]; saline/paclitaxel vs saline/vehicle, particularly 110-230 μm): reduced dendritic arborization; also recorded: primarily due to differences in apical dendrites
PKCα protein level (PKCα; cortex, 30 DPI (chronic), 4×20 mg/kg paclitaxel): upregulation
PKCα protein level (PKCα; cortex, 24 h after a single 20 mg/kg paclitaxel injection (acute)): upregulation
PKCα protein level (PKCα; hippocampus, 24 h after a single 20 mg/kg paclitaxel injection (acute)): upregulation
pMARCKS (S152/156) level (pMARCKS (S152/156)): trend towards increased pMARCKS
levels of other InsP3R pathway proteins (InsP3R1, NCS1, PLC-β1) [6]: No changes

Source: patent US20230031009A1, “TREATMENT FOR CHEMOBRAIN” (YALE UNIVERSITY, priority 2020, published 2023)
